Laboratory results from patent US8680052B1, “Methods of treating, reducing the incidence of, and/or preventing ischemic events” (The Medicines Company, priority 2013, dated 2014).
Read-outs that look alike come from different tables or passages of the source.

System: patients undergoing percutaneous coronary intervention (PCI)
Conditions: for OR (95% CI): All-cause mortality / OR (95% CI): IDR / OR (95% CI): MI / OR (95% CI): Mortality/MI/IDR / OR (95% CI): Mortality/Q-wave MI/IDR / OR (95% CI): Mortality/Q-wave MI/Stent thrombosis / OR (95% CI): Q-wave MI / OR (95% CI): Stent thrombosis / OR (95% CI): Stroke / OR (95% CI): Mortality/MI/IDR (primary endpoint): cangrelor vs comparator arm; for Mortality/Q-wave MI/IDR / Mortality/Q-wave MI/Stent thrombosis: exploratory; for Angiographic complications (site reported): Abrupt vessel closure / Angiographic complications (site reported): Acute stent thrombosis / Angiographic complications (site reported): Need for urgent CABG / Angiographic complications (site reported): New thrombus or suspected thrombus / Angiographic complications (site reported): Threatened abrupt closure / Angiographic complications (site reported): Unsuccessful procedure: index PCI
[1] = 48-hour, MITT, listed as cangrelor

Procedure: The diagnosis of non-ST-segment elevation myocardial infarction required troponin I or T greater than the upper limit of normal within 24 hours of randomization (or if troponin results were unavailable at that time, creatine kinase-myocardial band isoenzyme [CK-MB] greater than the upper limit of normal). The diagnosis of unstable angina required ischemic chest discomfort occurring at rest and lasting ≧10 minutes within the 24 hours prior to randomization and dynamic electrocardiographic changes; age ≧65 years and/or diabetes mellitus were also required.
The primary efficacy endpoint was the composite of mortality, myocardial infarction, or ischemia-driven revascularization at 48 hours. The primary analysis was performed on a modified intent-to-treat population. Confirmatory analyses were performed on an intent-to-treat population. Secondary endpoints included the individual rates of mortality, myocardial infarction, new Q-wave myocardial infarction, ischemia-driven revascularization, abrupt vessel closure, or stroke at 48 hours. Mortality at 30 days and 1 year was also recorded. The clinical events committee adjudicated myocardial infarction, Q-wave myocardial infarction, ischemia-driven revascularization, stent thromboses, and stroke (ischemic or hemorrhagic). The definition of stent thrombosis was similar to the Academic Research Consortium definition of definite stent thrombosis. After review of the prespecified analyses, two exploratory endpoints less reliant on periprocedural biomarker ascertainment were examined. The exploratory endpoints, which were composed of prespecified and adjudicated endpoints, were the composite of mortality, Q-wave myocardial infarction, or ischemia-driven revascularization and the composite of mortality, Q-wave myocardial infarction, or stent thrombosis. Bleeding and adverse events through 48 hours were compared.
All efficacy analyses were performed on the modified intent-to-treat population, defined as all randomized patients who received at least one dose of study drug and underwent the index PCI. All safety-related analyses were performed on the safety population, which included all patients who received at least one dose of assigned study drug. Patients in the safety analyses were assigned to a treatment arm based on treatment actually received, not as randomized. Intent-to-treat analyses are also presented for full disclosure of results. All statistical tests were two-tailed using a level of significance of 0.05. […] Logistic regression was also used to analyze the majority of the remaining secondary endpoints.

Compound: CSCCNc1nc(SCCC(F)(F)F)nc2c1ncn2[C@@H]1O[C@H](COP(=O)(O)OP(=O)(O)C(Cl)(Cl)P(=O)(O)O)[C@@H](O)[C@H]1O [Cangrelor, cangrelor]
- All-cause mortality (30-day, ITT): 36 (1.3) no. (%)
- IDR (30-day, ITT): 37 (1.4) no. (%)
- MI (30-day, ITT): 190 (7.1) no. (%)
- Mortality/MI/IDR (30-day, ITT): 230 (8.6) no. (%)
- Q-wave MI (30-day, ITT): 8 (0.3) no. (%)
- Stent thrombosis (30-day, ITT): 15 (0.6) no. (%)
- OR (95% CI): All-cause mortality (30-day, ITT): 0.754 (0.487, 1.167)
- OR (95% CI): IDR (30-day, ITT): 0.743 (0.483, 1.142)
- OR (95% CI): MI (30-day, ITT): 0.924 (0.752, 1.135)
- OR (95% CI): Mortality/MI/IDR (30-day, ITT): 0.885 (0.734, 1.067)
- OR (95% CI): Mortality/Q-wave MI/IDR (30-day, ITT): 0.718 (0.524, 0.984)
- OR (95% CI): Mortality/Q-wave MI/Stent thrombosis (30-day, ITT): 0.648 (0.453, 0.927)
- OR (95% CI): Q-wave MI (30-day, ITT): 0.526 (0.222, 1.242)
- OR (95% CI): Stent thrombosis (30-day, ITT): 0.508 (0.272, 0.950)
- Mortality/Q-wave MI/IDR (30-day, ITT): 69 (2.6) no. (%)
- Mortality/Q-wave MI/Stent thrombosis (30-day, ITT): 51 (1.9) no. (%)
- All-cause mortality (30-day, MITT): 33 (1.2) no. (%)
- IDR (30-day, MITT): 37 (1.4) no. (%)
- MI (30-day, MITT): 189 (7.1) no. (%)
- Mortality/MI/IDR (30-day, MITT): 226 (8.5) no. (%)
- Q-wave MI (30-day, MITT): 8 (0.3) no. (%)
- Stent thrombosis (30-day, MITT): 15 (0.6) no. (%)
- OR (95% CI): All-cause mortality (30-day, MITT): 0.725 (0.461, 1.140)
- OR (95% CI): IDR (30-day, MITT): 0.796 (0.515, 1.231)
- OR (95% CI): MI (30-day, MITT): 0.929 (0.756, 1.142)
- OR (95% CI): Mortality/MI/IDR (30-day, MITT): 0.892 (0.739, 1.078)
- OR (95% CI): Mortality/Q-wave MI/IDR (30-day, MITT): 0.730 (0.528, 1.008)
- OR (95% CI): Mortality/Q-wave MI/Stent thrombosis (30-day, MITT): 0.647 (0.447, 0.935)
- OR (95% CI): Q-wave MI (30-day, MITT): 0.566 (0.237, 1.352)
- OR (95% CI): Stent thrombosis (30-day, MITT): 0.529 (0.282, 0.993)
- Mortality/Q-wave MI/IDR (30-day, MITT): 66 (2.5) no. (%)
- Mortality/Q-wave MI/Stent thrombosis (30-day, MITT): 48 (1.8) no. (%)
- All-cause mortality (30-day, Safety population): 34 (1.3) no. (%)
- IDR (30-day, Safety population): 37 (1.4) no. (%)
- MI (30-day, Safety population): 188 (7.1) no. (%)
- Mortality/MI/IDR (30-day, Safety population): 226 (8.5) no. (%)
- Q-wave MI (30-day, Safety population): 8 (0.3) no. (%)
- Stent thrombosis (30-day, Safety population): 15 (0.6) no. (%)
- OR (95% CI): All-cause mortality (30-day, Safety population): 0.747 (0.477, 1.170)
- OR (95% CI): IDR (30-day, Safety population): 0.779 (0.504, 1.202)
- OR (95% CI): MI (30-day, Safety population): 0.913 (0.743, 1.122)
- OR (95% CI): Mortality/MI/IDR (30-day, Safety population): 0.884 (0.732, 1.067)
- OR (95% CI): Mortality/Q-wave MI/IDR (30-day, Safety population): 0.732 (0.531, 1.010)
- OR (95% CI): Mortality/Q-wave MI/Stent thrombosis (30-day, Safety population): 0.651 (0.452, 0.938)
- OR (95% CI): Q-wave MI (30-day, Safety population): 0.528 (0.224, 1.248)
- OR (95% CI): Stent thrombosis (30-day, Safety population): 0.529 (0.282, 0.993)
- Mortality/Q-wave MI/IDR (30-day, Safety population): 67 (2.5) no. (%)
- Mortality/Q-wave MI/Stent thrombosis (30-day, Safety population): 49 (1.8) no. (%)
- All-cause mortality (48-hour, ITT): 8 (0.3) no. (%)
- IDR (48-hour, ITT): 19 (0.7) no. (%)
- MI (48-hour, ITT): 177 (6.6) no. (%)
- Mortality/MI/IDR (48-hour, ITT): 187 (6.9) no. (%)
- Q-wave MI (48-hour, ITT): 4 (0.1) no. (%)
- Stent thrombosis (48-hour, ITT): 5 (0.2) no. (%)
- Stroke (48-hour, ITT): 7 (0.3) no. (%)
- OR (95% CI): All-cause mortality (48-hour, ITT): 0.415 (0.181, 0.950)
- OR (95% CI): IDR (48-hour, ITT): 0.721 (0.398, 1.307)
- OR (95% CI): MI (48-hour, ITT): 0.906 (0.734, 1.120)
- OR (95% CI): Mortality/MI/IDR (48-hour, ITT): 0.859 (0.701, 1.054)
- OR (95% CI): Mortality/Q-wave MI/IDR (48-hour, ITT): 0.558 (0.341, 0.915)
- OR (95% CI): Mortality/Q-wave MI/Stent thrombosis (48-hour, ITT): 0.409 (0.224, 0.749)
- OR (95% CI): Q-wave MI (48-hour, ITT): 0.439 (0.135, 1.428)
- OR (95% CI): Stent thrombosis (48-hour, ITT): 0.308 (0.113, 0.842)
- OR (95% CI): Stroke (48-hour, ITT): 1.155 (0.388, 3.442)
- Mortality/Q-wave MI/IDR (48-hour, ITT): 25 (0.9) no. (%)
- Mortality/Q-wave MI/Stent thrombosis (48-hour, ITT): 15 (0.6) no. (%)
- All-cause mortality (48-hour, MITT): 6 (0.2) no. (%)
- IDR (48-hour, MITT): 19 (0.7) no. (%)
- MI (48-hour, MITT): 177 (6.7) no. (%)
- Mortality/MI/IDR (primary endpoint) (48-hour, MITT): 185 (7.0) no. (%)
- Q-wave MI (48-hour, MITT): 4 (0.2) no. (%)
- Stent thrombosis (48-hour, MITT): 5 (0.2) no. (%)
- Stroke (48-hour, MITT): 7 (0.3) no. (%)
- OR (95% CI): All-cause mortality (48-hour, MITT): 0.330 (0.131, 0.833)
- OR (95% CI): IDR (48-hour, MITT): 0.786 (0.430, 1.439)
- OR (95% CI): MI (48-hour, MITT): 0.917 (0.742, 1.133)
- OR (95% CI): Mortality/MI/IDR (primary endpoint) (48-hour, MITT): 0.867 (0.706, 1.065)
- OR (95% CI): Mortality/Q-wave MI/IDR (48-hour, MITT): 0.554 (0.332, 0.926)
- OR (95% CI): Mortality/Q-wave MI/Stent thrombosis (48-hour, MITT): 0.377 (0.199, 0.717)
- OR (95% CI): Q-wave MI (48-hour, MITT): 0.497 (0.149, 1.652)
- OR (95% CI): Stent thrombosis (48-hour, MITT): 0.310 (0.113, 0.847)
- OR (95% CI): Stroke (48-hour, MITT): 1.394 (0.442, 4.398)
- OR (95% CI): All-cause mortality [1]: 0.33
- OR (95% CI): Mortality/MI/IDR (primary endpoint) [1]: 0.87
- OR (95% CI): Stent thrombosis [1]: 0.31
- Mortality/Q-wave MI/IDR (48-hour, MITT): 23 (0.9) no. (%)
- Mortality/Q-wave MI/Stent thrombosis (48-hour, MITT): 13 (0.5) no. (%)
- OR (95% CI): All-cause mortality (48-hour, Safety population): 0.385 (0.161, 0.924)
- OR (95% CI): IDR (48-hour, Safety population): 0.754 (0.414, 1.373)
- OR (95% CI): MI (48-hour, Safety population): 0.901 (0.729, 1.113)
- OR (95% CI): Mortality/MI/IDR (48-hour, Safety population): 0.858 (0.699, 1.053)
- OR (95% CI): Mortality/Q-wave MI/IDR (48-hour, Safety population): 0.564 (0.341, 0.935)
- OR (95% CI): Mortality/Q-wave MI/Stent thrombosis (48-hour, Safety population): 0.395 (0.212, 0.735)
- OR (95% CI): Q-wave MI (48-hour, Safety population): 0.441 (0.136, 1.435)
- OR (95% CI): Stent thrombosis (48-hour, Safety population): 0.310 (0.113, 0.846)
- OR (95% CI): Stroke (48-hour, Safety population): 1.394 (0.442, 4.396)
- Mortality/Q-wave MI/IDR (48-hour, Safety population): 24 (0.9) no. (%)
- Mortality/Q-wave MI/Stent thrombosis (48-hour, Safety population): 14 (0.5) no. (%)
- All-cause mortality (48-hour, safety population): 7 (0.3) no. (%)
- IDR (48-hour, safety population): 19 (0.7) no. (%)
- MI (48-hour, safety population): 176 (6.6) no. (%)
- Mortality/MI/IDR (48-hour, safety population): 185 (7.0) no. (%)
- Q-wave MI (48-hour, safety population): 4 (0.2) no. (%)
- Stent thrombosis (48-hour, safety population): 5 (0.2) no. (%)
- Stroke (48-hour, safety population): 7 (0.3) no. (%)
- Rates of stent thrombosis (48 hours): 0.2%
- rate of mortality at 48 hours (48 hours): 0.2%
- primary endpoint (mortality, myocardial infarction, or ischemia-driven revascularization), patients with event (48 hours, MITT): 7.0%
- Angiographic complications (site reported): Abrupt vessel closure (ITT): 13 (0.5)
- Angiographic complications (site reported): Acute stent thrombosis (ITT): 1 (0.0)
- Angiographic complications (site reported): Need for urgent CABG (ITT): 5 (0.2)
- Angiographic complications (site reported): New thrombus or suspected thrombus (ITT): 14 (0.5)
- Angiographic complications (site reported): Threatened abrupt closure (ITT): 10 (0.4)
- Angiographic complications (site reported): Unsuccessful procedure (ITT): 84 (3.1)
- Angiographic complications (site reported): Abrupt vessel closure (MITT): 13 (0.5)
- Angiographic complications (site reported): Acute stent thrombosis (MITT): 1 (0.0)
- Angiographic complications (site reported): Need for urgent CABG (MITT): 5 (0.2)
- Angiographic complications (site reported): New thrombus or suspected thrombus (MITT): 14 (0.5)
- Angiographic complications (site reported): Threatened abrupt closure (MITT): 10 (0.4)
- Angiographic complications (site reported): Unsuccessful procedure (MITT): 81 (3.1)
- Angiographic complications (site reported): Abrupt vessel closure (Safety population): 13 (0.5)
- Angiographic complications (site reported): Acute stent thrombosis (Safety population): 1 (0.0)
- Angiographic complications (site reported): Need for urgent CABG (Safety population): 5 (0.2)
- Angiographic complications (site reported): New thrombus or suspected thrombus (Safety population): 14 (0.5)
- Angiographic complications (site reported): Threatened abrupt closure (Safety population): 10 (0.4)
- Angiographic complications (site reported): Unsuccessful procedure (Safety population): 81 (3.1)
- primary efficacy endpoint (subgroup of 1659 patients without baseline troponin elevation): 4.6%
- OR, primary efficacy endpoint (subgroup of 1659 patients without baseline troponin elevation, cangrelor vs placebo): 0.62
